The record followed here is ChEMBL document CHEMBL1137177, “Synthesis of 2',5'-oligoadenylate analogs containing an adenine acyclonucleoside and their ability to activate human RNase L” (Bioorg Med Chem Lett, 2004).

Broadly, the EC50 is the midpoint of the concentration-response curve.

This assay can be described thus: Effective concentration for activation of RNase L.
As to `Nc1ncnc2c1ncn2[C@@H]1O[C@H](COP(=O)(O)O[C@@H]2[C@H](O)[C@@H](COP(=O)(O)O[C@@H]3[C@H](O)[C@@H](COP(=O)(O)O[C@@H]4[C@H](O)[C@@H](COP(=O)(O)O)O[C@H]4n4cnc5c(N)ncnc54)O[C@H]3n3cnc4c(N)ncnc43)O[C@H]2n2cnc3c(N)ncnc32)[C@@H](O)[C@H]1O`, the EC50 was determined as 1 nM. With `Nc1ncnc2c1ncn2C[C@H](OP(=O)(O)OC[C@H]1O[C@@H](n2cnc3c(N)ncnc32)[C@H](OP(=O)(O)OC[C@H]2O[C@@H](n3cnc4c(N)ncnc43)[C@H](O)[C@@H]2O)[C@@H]1O)[C@H](O)CO[PH](=O)O[C@@H]1[C@H](O)[C@@H](COP(=O)(O)O)O[C@H]1n1cnc2c(N)ncnc21` (stereo partly drawn) the figure was 9 nM. `Nc1ncnc2c1ncn2C[C@H](OP(=O)(O)OC[C@H]1O[C@@H](n2cnc3c(N)ncnc32)[C@H](O)[C@@H]1O)[C@H](O)COP(=O)(O)O[C@@H]1[C@H](O)[C@@H](CO[PH](=O)O[C@@H]2[C@H](O)[C@@H](COP(=O)(O)O)O[C@H]2n2cnc3c(N)ncnc32)O[C@H]1n1cnc2c(N)ncnc21` (stereo partly drawn) displayed an EC50 of 1.7 nM. This EC50 lies about 5.3-fold lower than the previous one.
